GI50 and TGI data for 25 molecules are collected here from PubChem BioAssay (NCI).

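Briefly, cells in 96-well plates were exposed to five compound concentrations for 48 h, and endpoints were estimated by linear interpolation. At the GI50, growth is halved. TGI is the concentration that stops growth completely.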

Common to all, as to experiment: DTP human tumour cell line panel, 48 h
In assay [1] the test system is UO-31 renal.
Assay [2] has as its system NCI-H460 lung.
In assay [3] the test system is M14 melanoma.
Assay [4] deals with CAKI-1 renal.
For assay [5], the system named is NCI-H23 lung.
Assay [6] has as its system SK-OV-3 ovarian.
The test system of assay [7] is KM12 colon.
Assay [8] concerns SW-620 colon.
Assay [9] deals with HL-60(TB) leukemia.
Assay [10] deals with HCC-2998 colon.

The term GI50 denotes the concentration giving 50% growth inhibition. Broadly, the TGI is the concentration giving total growth inhibition. As for `COC(=O)/C(C#N)=C\N1CCN(C(=O)c2ccco2)C1=S`, the GI50 in assay [1] is 5.19 µM; in assay [2], 2.47 µM; in [3], 6.35 µM; in assay [4] it was 3.43 µM; in assay [5], 13.2 µM; in [6], 28.2 µM. For the same molecule, the GI50 in assay [7] is 3.3 µM; in assay [8], 5.2 µM; in assay [9], 6.94 µM. The TGI was 21.3 µM in [1]; 4.95 µM in [2]; 19.9 µM in assay [3]; 14.1 µM in [4]; 27.7 µM in assay [5]; more than 100 µM in assay [6]. Further, the TGI in [7] is 12.6 µM; in assay [8], 19.7 µM; in assay [9], more than 100 µM.

As to `COc1cc(/C=C/C(=O)C(=Cc2ccc(F)c(F)c2)C(=O)/C=C/c2ccc(O)c(OC)c2)ccc1O`, the GI50 in [10] is 1.98 µM; in assay [1], 3.04 µM; in assay [2], 2.68 µM; in [4], 3.51 µM; in assay [5] it was 2.8 µM; in assay [6] it was 3.45 µM. Besides, the results for the GI50 in assay [7], in [8] and in assay [9] were 1.64 µM, 1.84 µM and 2.67 µM, respectively. The TGI turned out to be 3.79 µM in assay [10]; 16.8 µM in [1]; 6.96 µM in assay [2]; 20.2 µM in [4]; 8.56 µM in [5]; 12.5 µM in [6]. The TGI is 3.19 µM in assay [7], 3.62 µM in assay [8] and 6.85 µM in [9].

As for `O=C1C=C2S[C@H]3C[C@]2(C=C1Br)c1c(c(O)c2c4c1=NCCC=4C=N2)N3`, the TGI in assay [10] was 4.98 µM; in [1], 2.94 µM; in assay [2], 11.6 µM; in assay [3] it was 2.01 µM; in assay [4], 3.07 µM; in assay [5], 2.57 µM. The TGI in assay [6] was determined as 17.1 µM; in assay [7], 3.83 µM; in [8], 0.237 µM.

For the molecule `COC(=O)CCC(NC(=S)N/N=C(\C)c1ccccn1)C(=O)OC` (stereo unspecified), the TGI in assay [10], in [1], in assay [2], in assay [3], in [5] and in assay [6] was more than 100 µM throughout. Moreover, the results for the TGI in [7], in assay [8] and in assay [9] were more than 100 µM, more than 100 µM and 53.1 µM, respectively.

Turning to `COc1cccc(Nc2nc(NNC(=O)Cc3ccccc3)nc(NNC(=O)c3ccncc3)n2)c1`, the GI50 is 32.3 µM in assay [1]; more than 100 µM in assay [2]; more than 100 µM in assay [4]; more than 100 µM in assay [5]; more than 100 µM in [6]. Besides, the TGI in assay [1], in [2], in assay [3], in [4], in assay [5] and in [6] was more than 100 µM throughout. The TGI in assay [7], in [8] and in assay [9] was more than 100 µM each time.

In the case of `NC(=O)c1ccccc1NC(=O)C(=O)C(C(=O)c1ccc2ccccc2c1)C1OC(=O)c2ccccc21` (stereo unspecified), the TGI in assay [10] was 20.1 µM; in assay [1], 29.4 µM; in assay [2] it was more than 100 µM; in [3], 30 µM; in assay [4], 33 µM; in assay [6] it was 75.2 µM. The TGI in [7] stood at 49 µM; in [8] it was 27.9 µM.

As to `CN(C)c1cccc(-c2cc(=O)c3ccccc3[nH]2)c1`, the TGI in assay [10], in assay [1], in assay [2], in assay [3], in assay [5] and in assay [6] was more than 100 µM in each case. The figures for the TGI in assay [7], in [8] and in [9] were more than 100 µM, more than 100 µM and 74.6 µM, respectively.

Regarding `NC(=S)N/N=C(/CC(=O)c1ccc([N+](=O)[O-])cc1)C(=O)Nc1ncc([N+](=O)[O-])s1`, the TGI in assay [10], in assay [1], in [2], in assay [3], in assay [5] and in assay [7] was more than 100 µM in each case. The TGI in [8] and in assay [9] was more than 100 µM in each case.

As to `O=C1CCCCC/C=C2/CC[C@H](Sc3ccccc3)[C@@H]12`, the TGI in assay [1], in [2], in [3], in assay [5], in assay [6] and in assay [7] was more than 100 µM each time. For the same molecule, the TGI in assay [8] and in [9] was more than 100 µM in each case.

For the molecule `O=C1C2=C(C(=O)c3c(O)ccc(O)c31)N(c1ccc(N3CCOCC3)nc1)Cc1ccccc1O2`, the GI50 was 1.56 µM in assay [10]; 0.131 µM in assay [1]; 1.31 µM in [2]; 0.276 µM in assay [3]; 0.421 µM in assay [5]; 2.89 µM in assay [6]. In addition, the GI50 was 1.55 µM in [7], 0.152 µM in assay [8] and 0.17 µM in assay [9]. For the same molecule, the concentration for total growth inhibition (TGI) in [10] was found to be 2.99 µM; in [1], 0.429 µM; in [2] it was 4.06 µM; in [3] it was 0.894 µM; in assay [5], 1.88 µM; in [6], 11.8 µM. The values for the TGI in assay [7], in assay [8] and in assay [9] were 3.92 µM, 0.5 µM and 0.616 µM, respectively.

As to `O=S(=O)(NCCNc1nccc(-c2c(-c3cccc(O)c3)nc3sccn23)n1)c1ccc(F)cc1`, the GI50 in assay [10] was 10.2 µM; in assay [1], 4.32 µM; in assay [2], 4.2 µM; in assay [3], 0.568 µM; in [4] it was 3.69 µM; in [5] it was 11.1 µM. Besides, the GI50 in assay [6] is 5.37 µM; in [7], 4.36 µM; in assay [8] it was 5.95 µM. For the same molecule, the TGI is 25.7 µM in assay [10]; 21 µM in [1]; 22.8 µM in assay [2]; 16.6 µM in [3]; 40.5 µM in [4]; 38.2 µM in [5]. The results for the TGI in [6], in assay [7] and in [8] were 59 µM, 16.2 µM and 36.9 µM, respectively.

In the case of `CSC1=Nc2c(c(C)c(-c3ccccc3)n2COC(CO)CO)C2=NC(=O)C(C)N12` (stereo unspecified), the GI50 in [10], in assay [1], in [2], in assay [4], in assay [5] and in assay [6] was more than 100 µM throughout. Besides, the GI50 in [7] was more than 100 µM; in [8], more than 100 µM; in [9] it was 3.69 µM. The TGI in [10], in assay [1], in assay [2], in assay [4], in assay [5] and in [6] was more than 100 µM each time. The TGI in [7], in [8] and in [9] was more than 100 µM in each case.

Turning to `N=C(N)n1ncc(Cl)c(Cl)c1=O`, the TGI in [1] is 4.93 µM; in assay [2] it was 31.4 µM; in assay [3], 4.03 µM; in [4], 3.31 µM; in assay [5] it was 5.06 µM; in assay [6] it was 32 µM. For the same molecule, the TGI was 20.2 µM in [7] and 3.75 µM in [8].

For `CCOC(=O)CC(=O)ON(C)C(=O)Cc1ccccc1`, the TGI in assay [1], in assay [2], in assay [3], in [4], in [5] and in assay [6] was more than 100 µM each time. Also, the TGI in [7], in assay [8] and in [9] was more than 100 µM throughout.

`CC(=O)OC1C=CC2CCN3C(=O)c4cc5c(cc4[C@H]1C23)OCO5` (stereo partly specified): the TGI in assay [1], in assay [2], in assay [3], in assay [5], in [6] and in assay [7] was more than 100 µM throughout. Moreover, the TGI in assay [8] and in assay [9] was more than 100 µM throughout.

On to `CC/C(=N\Nc1nc2ccccc2n1C)c1ccccn1`, for which the GI50 in assay [10] is 0.314 µM; in [1] it was 0.0761 µM; in assay [2], 0.114 µM; in assay [4], 0.113 µM; in [5] it was 0.0452 µM; in [6] it was 0.064 µM. In addition, the GI50 in [7] is 0.19 µM; in [8], 0.0393 µM; in assay [9], 0.0252 µM. Further, the TGI in assay [10] stood at 7.23 µM; in assay [1] it was 1.16 µM; in assay [2], 1.82 µM; in assay [4], 1.98 µM; in assay [5], 17.6 µM; in assay [6], 1.58 µM. For the same molecule, the TGI turned out to be 11.3 µM in assay [7], 15 µM in assay [8] and 0.319 µM in assay [9].

As for `COc1ccc(/C=C/C(=O)c2sc(N)nc2C)cc1`, the TGI in assay [10], in assay [1], in assay [2], in assay [4], in [5] and in assay [6] was more than 100 µM in each case. Moreover, the TGI in [7], in assay [8] and in assay [9] was more than 100 µM throughout.

Take `Cc1cccc2c1Oc1cc(Cl)ccc1C2NC(=O)CCN1CCCCC1` (stereo unspecified): the TGI in [10] came out at 28.3 µM; in assay [1], 29.2 µM; in assay [2], 31.6 µM; in assay [3], 34 µM; in [5], 37.5 µM; in [7] it was 30.8 µM. The TGI in assay [8] came out at 34.9 µM; in [9], 38.3 µM.

Regarding `C/C(=N\NC(=O)CC(=O)Nc1ccc(C)cc1)c1cc2ccccc2oc1=O`, the TGI in assay [1], in assay [2], in [3], in assay [5], in assay [6] and in assay [7] was more than 100 µM in each case. For the same molecule, the TGI in assay [8] and in [9] was more than 100 µM throughout.

Turning to `O=C(Nc1cccc(Cl)c1)Nc1cccc(Cl)c1`, the GI50 in assay [1] was more than 26 µM; in assay [3], more than 100 µM; in [6], more than 100 µM; in [9] it was 5.02 µM. Besides, the TGI in [1], in assay [3], in [6] and in assay [9] was more than 100 µM throughout.

As for `O=[N+]([O-])c1cccc(C2SCc3nc4ccccc4n32)c1` (stereo unspecified), the TGI in assay [1], in assay [2], in assay [4], in assay [5], in assay [6] and in [7] was more than 100 µM throughout. Moreover, the TGI in assay [8] and in assay [9] was more than 100 µM each time.

As to `CC(=O)Nc1ccc2nncnc2c1`, the TGI in assay [1], in assay [2], in assay [3], in assay [4], in [5] and in [6] was more than 100 µM in each case. Further, the TGI in assay [7], in assay [8] and in assay [9] was more than 100 µM throughout.

For the molecule `Cc1ccc2nc3c(Cl)cc(=O)cc-3sc2c1`, the TGI in assay [1] is more than 100 µM; in assay [2], 83.5 µM; in assay [3], 60.5 µM; in [4], 71.1 µM; in [8], 43.5 µM; in assay [9], 20.5 µM.

With `O=C(c1cc2ccccc2[nH]1)C(O)(c1cc2ccccc2[nH]1)c1cc2ccccc2[nH]1`, the concentration for total growth inhibition (TGI) in assay [10], in assay [2], in assay [4], in assay [5], in [6] and in [7] was more than 246 µM throughout. For the same molecule, the TGI in assay [8] and in assay [9] was more than 246 µM each time.

For `O=C(CC(=O)N1N=C(n2ccc3ccccc32)CC1c1ccccc1)Nc1cccc(Cl)c1` (stereo unspecified), the TGI in assay [10], in [1], in assay [2], in assay [3], in assay [5] and in assay [6] was more than 100 µM throughout. Besides, the TGI in assay [7], in assay [8] and in assay [9] was more than 100 µM throughout.
